Source: ChEMBL document CHEMBL1131933, “Cleavage of the cyclohexyl-subunit of rapamycin results in loss of immunosuppressive activity” (Bioorg Med Chem Lett, 1999)

Assays:
[1] = Compound was tested in vitro for inhibitory activity in the mixed lymphocyte reaction (MLR) assay; type: functional
[2] = target: Peptidyl-prolyl cis-trans isomerase FKBP1A (Homo sapiens, UniProt P62942); experiment: Compound was tested in vitro for its ability to compete with immobilized FK506 for binding to biotinylated FK506 binding protein 12 in a competitive binding assay
[3] = Compound was tested in vitro for its ability to inhibit the proliferation of the IL-6-dependent hybridoma clone B13-29-15; type: functional

Chain of Peptidyl-prolyl cis-trans isomerase FKBP1A (P62942 whole entry): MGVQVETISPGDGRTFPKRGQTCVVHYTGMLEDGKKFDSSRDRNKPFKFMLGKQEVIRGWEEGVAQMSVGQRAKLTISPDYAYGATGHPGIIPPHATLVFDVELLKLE

SMILES: COC(=O)CC[C@H](CCO)C[C@@H](C)[C@@H]1CC(=O)[C@H](C)/C=C(\C)[C@@H](O)[C@@H](OC)C(=O)[C@H](C)C[C@H](C)/C=C/C=C/C=C(\C)[C@@H](OC)C[C@@H]2CC[C@@H](C)[C@@](O)(O2)C(=O)C(=O)N2CCCC[C@H]2C(=O)O1
- IC50 [1]: > 380 nM
- IC50 [2]: 3.4 nM
- IC50 [3]: 200 nM

SMILES: CO[C@H]1C[C@@H]2CC[C@@H](C)[C@@](O)(O2)C(=O)C(=O)N2CCCC[C@H]2C(=O)O[C@H]([C@H](C)C[C@@H]2CC[C@@H](O)[C@H](OC)C2)CC(=O)[C@H](C)/C=C(\C)[C@@H](O)[C@@H](OC)C(=O)[C@H](C)C[C@H](C)/C=C/C=C/C=C/1C [SIROLIMUS]
- IC50 [1]: 1 nM
- IC50 [3]: 1 nM
